Results reported in ChEMBL document CHEMBL3507680, “University of Dundee, Gates Library screen for HepG2 cell viability”.

Assay: Human HepG2 cell viability assay in 384 well format
Format: toxicity, cell-based
Parameters: dose 125 nL, time 70.5 hour; cytotoxicity at 70.5 h: concentration not given beside the values
Conditions: HepG2 cells, read-out: Inhibition

| SMILES | cytotoxicity at 70.5 h [%] |
| --- | --- |
| O=C1O[C@@H]2CN(C3CCOCC3)C[C@@H]2N1CCCc1ccc(F)cc1 | 14.2 |
| Cc1cncc(C2CCCN2CC(N)=O)n1 (centres undefined) | -2.96 |
| CCCn1c(C)c(CC(=O)N(C)CC(=O)OC)c2c1CC(C)(C)CC2=O | -3.68 |
| CN(C(=O)CCNC(=O)NC1CCCCC1)c1ccccc1 | 38.6 |
| O=C(NS(=O)(=O)c1ccccc1Cl)c1cccc2c1OCCO2 | -3.53 |
| CN(C)C[C@@H]1CN(C(=O)Cc2ccccc2)C[C@@H]1CO | -3.7 |
| COc1nn(C)c2c1CCCN(S(=O)(=O)c1ccccc1F)C2 | -1.52 |
| COCC(Nc1ncnc2sc(C)c(C)c12)c1ccnn1C (centres undefined) | -4.15 |
| CCCNC(=O)COc1cc(C)c2c(C)nn(-c3ccc(C)cc3)c2n1 | -2.23 |
| COCCCNC(=O)CN(C)C(=O)c1ccc(-n2cccc2)cc1O | -0.626 |
| CCCc1cc(C(=O)N(C)Cc2cnc3ccccc3n2)n(C)n1 | -4.51 |
| CN(C)C(=O)c1ccc(C(C(=O)O)N(C)Cc2ccccc2Cl)cc1 (centres undefined) | -8.81 |
| CS(=O)(=O)N1CCc2[nH]nc(Cc3cccs3)c2C1 | -2.7 |
| Cc1nn(C)c(Cl)c1C1CCCN1Cc1ccc(C(N)=O)cc1 (centres undefined) | -7.15 |
| CCNc1nnc(CCn2nc(C)c(Br)c2C)s1 | -7.99 |
| CN1C(=O)CN(C(=O)c2ccc(=O)n(C)c2)c2ccccc21 | 1.56 |
| CCN1CC(C(=O)N2CCc3cc(C(=O)N(C)C)n(C)c3C2)CCC1=O (centres undefined) | -6.7 |
| CCCN(c1ccccc1C(=O)O)S(=O)(=O)c1cccc2cccnc12 | -10.2 |
| CC(NCCc1nccn1Cc1ccccc1)c1ccsc1 (centres undefined) | -10.7 |
| NCc1cc(-c2ccccc2)n2nccc2n1 | -10.1 |
| CN(Cc1ccc(Cl)s1)C(=O)CN(C)C1CCCc2ccccc21 (centres undefined) | -4.74 |
| O=C(CN1CCN(CCO)CC1)NCCc1c(F)cccc1F | -1.38 |
| OC(CNCCn1cccn1)c1ccc(Br)cc1 (centres undefined) | 15.8 |

| SMILES | cytotoxicity at 70.5 h [%] |
| --- | --- |
| Cc1nn(C)c(C)c1CN1CCCC(c2ccc(C(=O)O)cc2)C1 (centres undefined) | -3.35 |
| COCCNC(=O)[C@@H]1CCO[C@@H]2CCN(Cc3cnn(C)c3)C[C@@H]21 | -11.1 |
| CCC1CCCCN1C(=O)Cn1nc(-c2ccc(C)o2)cc(N)c1=O (centres undefined) | -15.1 |
| CCn1nccc1CNC(=O)C1CCCCC1 | -0.635 |
| CO[C@H]1CCN(C(=O)c2cc(C)on2)[C@H]1Cc1ccncc1 | -7.23 |
| CN1CCO[C@@H]2CN(S(=O)(=O)c3ccccc3)C[C@@H]2C1 | 20.2 |
| CS(=O)(=O)N1CC2(CCN(C3COC3)C2)Cc2ccccc21 (centres undefined) | -4.95 |
| CC(=O)N1CCCC1c1nc(C)cc(-c2ccc(F)cc2)n1 (centres undefined) | -1.51 |
| CCCNC(=O)CCNC1CSCCc2ccccc21 (centres undefined) | -2.78 |
| CS(=O)(=O)N1CCN(C(=O)Cn2ccc3c(Cl)cccc32)CC1 | 8.68 |
| Cc1nnc(CN(C)CC(=O)NCCc2ccc(F)cc2)n1C | -5.46 |
| COc1ccc(OC)c(C(O)CNC(=O)Nc2ccc(F)cc2F)c1 (centres undefined) | -6.18 |
| CCn1cc(C(=O)NCCc2nc(-c3ccc(C)cc3)n[nH]2)c(C)n1 | -4.26 |
| CC(C)c1cc(C(=O)N2CCN(c3cccc(C(=O)O)c3)CC2)n(C)n1 | -13.2 |
| COCCNC(=O)NCCc1cccc(OC)c1O | 0.934 |
| Cc1nc(Nc2ccccn2)cc(C2CCCN2C2CCOCC2)n1 (centres undefined) | -10.7 |
| CC(=O)c1cccc(CN2CC(Oc3ccccc3C)C2)c1 | -3.39 |
| CCc1cccc(CC(=O)NC2CCN(C(=O)NC(C)(C)C)CC2)c1 | 1.52 |
| CN1CCCn2c(nc(CNC(=O)c3ccsc3)cc2=O)C1 | -15.1 |
| O=C(COC[C@@]12CCC[C@@H]1CN(C1CCC1)C2)N1CCCC1 | -9.27 |
| COC(=O)c1ccccc1S(=O)(=O)NC(=O)c1cccc2c1OCCO2 | -100 |
| Cc1nc[nH]c1CN1CCCN(c2nc3ccccc3s2)CC1 | -2.7 |
| Fc1cccc(OC2CCN(Cc3ncc[nH]3)CC2)c1 | 18 |

| SMILES | cytotoxicity at 70.5 h [%] |
| --- | --- |
| CCOCC1CN(C(=O)COc2ccccc2C)Cc2ncn(C)c21 (centres undefined) | -4.87 |
| c1cncc(OC[C@@H]2CCC[C@@]23CNCCO3)c1 | 14.3 |
| Cc1cc(-n2c(C)cn(CN(C)C3CCS(=O)(=O)C3)c2=O)no1 (centres undefined) | -14.6 |
| COCCN1CCO[C@@H]2CN(Cc3sccc3C)C[C@@H]2C1 | 1.15 |
| CC1CCCCN1S(=O)(=O)NCCN/C(O)=C1/N=CC=CC1=O (centres undefined) | -5.82 |
| CCS(=O)(=O)c1ccccc1N1CCC(NC(C)=O)CC1 | -4.79 |
| O=C(Nc1cc(F)ccc1OCC1CCCO1)N1CCCC1 (centres undefined) | -17.1 |
| CCCc1nc(NCCOC)c2c(n1)c(C)nn2CC | -7.81 |
| CCN1CCCC12CCN(C(=O)c1nccn1C)CC2 | -7.36 |
| CNS(=O)(=O)c1cc(C(=O)N(C)Cc2sccc2C)c(C)o1 | -5.52 |
| CCc1ccsc1C(=O)N1CCN(C(=O)c2ccc(C)o2)CC1 | -5.92 |
| Cn1ccc(C(=O)NCCOc2ccc3c(c2)OCO3)cc1=O | -6.82 |
| COc1ccc(C(=O)N2C[C@@H](CN3CCCCC3)[C@@H](CO)C2)cc1Cl | -1.81 |
| Cc1cc(C(=O)Cn2cnnc2[S+](C)[O-])cc(C)c1F (centres undefined) | 33.6 |
| CN(C)C(=O)N1CC[C@@H](O)[C@@H]1Cc1cnn(C)c1 | -1.6 |
| Fc1ccccc1OCCN1CCCCC1Cn1cncn1 (centres undefined) | 2.55 |
| CC(=O)N(C)c1nc(CN2CCN(Cc3nccn3C)CC2)cs1 | 10.2 |
| CN(Cc1ccccc1)C1(C(=O)NCC(N)=O)Cc2ccccc2C1 | 5.7 |
| CCCN1CCC(CNC(=O)N2CCCC2c2c(C)n[nH]c2C)CC1 (centres undefined) | 3.87 |
| CC(=O)N1CCC2(CCN(C(=O)c3cccc(C(F)(F)F)c3)CC2)C1 | 7.98 |
| O=c1[nH][nH]cc1-c1ccnc(NCCc2cccnc2)n1 | -2.07 |
| COc1cccc([C@H]2CN(C(=O)c3nnc4n3CCCC4)C[C@@H]2N)c1 | -3.91 |
| COC(=O)c1ccc(N2CCN(CCN3CCOCC3)C(C)C2)cc1 (centres undefined) | -6.62 |

| SMILES | cytotoxicity at 70.5 h [%] |
| --- | --- |
| Cc1cnc(CC2COCCN(C(=O)c3cncs3)C2)cn1 (centres undefined) | -1.74 |
| Cc1ccc(-c2nc(CN3CCCC(Cn4cncn4)C3)no2)cc1 (centres undefined) | 27.5 |
| NC(=O)c1cnc(NCC(=O)NCc2ccccc2)c(Cl)c1 | -4.1 |
| O=C(CC1CCCCC1)N1CCN(C(=O)NCc2ccccn2)CC1 | -9.56 |
| CCOc1ccc2oc(-c3cn(C)nc3C)c(O)c(=O)c2c1 | 32.5 |
| c1cnc(-c2cnc(N3CCSCC3)nc2C2CC2)cn1 | -15.9 |
| O=C(Cc1cccc(O)c1)NC1CCN(c2cccc(Cl)c2)C1 (centres undefined) | -3.87 |
| COc1cc(CN2CCC(O)(c3ccc(C)cn3)CC2)cc(Cl)c1OC | 17.5 |
| CSc1nnc(CC2CCN(C(=O)COc3cccnc3)CC2)n1C | -8.54 |
| CCCNC(=O)CNc1ccc2c(c1)N(C(=O)OC(C)(C)C)CCC2 | 2.81 |
| O=C(Nc1ccc2c(c1)OCO2)N1CCN(CCn2cccn2)CC1 | -11.3 |
| CCc1ncc2c(n1)CN(CC(=O)Nc1ccc(Cl)cn1)CC2 | 32.4 |
| CN(Cc1ccc(Cl)s1)C(=O)c1cccc(OCC(N)=O)c1 | -15.3 |
| Cc1cccc(CNc2n[nH]c(C)n2)c1 | -5.26 |
| CNC(=O)C1CN(C)CCN(CCCOc2ccccc2F)C1 (centres undefined) | -3.84 |
| CC(C)Cn1cc(NC(=O)NC(C)(C)c2nccs2)cn1 | -6.56 |
| Cc1csc2ncn(C(C)Cc3cccnc3)c(=O)c12 (centres undefined) | -4.53 |
| CCOc1ncccc1CNCc1c(C)nn(C)c1N(C)C | 24.1 |
| CCO[C@H]1COC[C@@H]1NC(=O)CCc1nc(-c2ccccc2)no1 | -8.01 |
| COc1ccc(C(=O)N2CCOCC2c2ccc(C)o2)cc1 (centres undefined) | -9.97 |
| Cc1ccc(N2CCCC3(CCN(C(=O)c4sccc4C)C3)C2)nn1 (centres undefined) | -4.03 |
| c1coc(CN2C[C@@H]3CN(Cc4ccoc4)CCO[C@@H]3C2)c1 | -1.5 |
| O=C(C(CNCc1cccnc1)c1ccccc1)N1CCOCC1 (centres undefined) | -8.37 |

| SMILES | cytotoxicity at 70.5 h [%] |
| --- | --- |
| COc1ccccc1C(C)NC(=O)N1CCC(n2cncn2)CC1 (centres undefined) | -7.85 |
| COCC1CC2(CCN(C(=O)c3cncc(C)c3)CC2)CO1 (centres undefined) | 9.94 |
| O=C(CC1CC1)N1CC[C@H]2[C@@H]1CCC(=O)N2Cc1ccncc1 | -9.8 |
| CN1CCN(C(=O)c2cc(C#N)cs2)c2ccccc2C1 | -0.662 |
| COCCN1CCC2(COCc3cnc(N4CCOCC4)nc32)C1 (centres undefined) | 28.1 |
| N#Cc1ccnc(N2CCN(CC(O)c3c(F)cccc3F)CC2)c1 (centres undefined) | 15.3 |
| Cc1nc(CN2CC[C@@H]3O[C@@H](C(=O)N4CCOCC4)C[C@@H]32)cs1 | -9.93 |
| Cc1cc(C2CCCN(C(=O)COc3ccccc3F)C2)n[nH]1 (centres undefined) | 12.5 |
| Fc1cc(CN2CCOC3(CCOCC3)C2)ccc1OC(F)F | -3.49 |
| Cc1n[nH]c(C)c1-c1cnc(CC2CCCN(S(C)(=O)=O)C2)cn1 (centres undefined) | -10.2 |
| Cc1nn(C)cc1CN(C)C(=O)c1cccnc1 | 8.22 |
| O=C(Cn1nc(-c2ccc(F)cc2)oc1=O)Nc1ccccc1 | 13.9 |
| CCC(C(=O)NC)N(c1cccc(C)c1)S(C)(=O)=O (centres undefined) | 11.9 |
| Cc1cccc(NC(=O)c2[nH]nc(C(C)C)c2Br)n1 | 23.8 |
| O=C(Cc1ccon1)NC1CC2(CCC2)Oc2ccccc21 (centres undefined) | 4.31 |
| OC(CN1CCCCc2ccccc21)Cn1cccn1 (centres undefined) | 1.14 |
| CCn1cnnc1C1CCN(C(=O)CCCOc2ccccc2)CC1 | -3.85 |
| c1ccc(-n2cncn2)c(CNCCn2cccn2)c1 | 10.2 |
| Cc1ccc(CN2CCOC3(CCCN(c4cccc(F)c4)C3)C2)o1 (centres undefined) | -6.42 |
| Cc1noc(-c2cccnc2N(C)Cc2ccc([S+](C)[O-])cc2)n1 (centres undefined) | -3.37 |
| O=C(CCc1cccnc1)N(Cc1ccsc1)CC1CCCO1 (centres undefined) | -6.73 |
| Cn1ccc(C(=O)N2CCCN(CCCc3ccccc3)CC2)cc1=O | -17.2 |
